AC50 data for 70 compounds are collected here from PMC7822874, “Chemoprotective antimalarials identified through quantitative high-throughput screening of Plasmodium blood and liver stage parasites” (Scientific Reports, 2021).

The assay has as its system Plasmodium falciparum Dd2 asexual blood stage parasites. Put plainly: microbe, parasite or virus in culture. Further details: species or system Plasmodium falciparum Dd2 in human erythrocytes; single determination (one 11-point concentration-response curve). The note with it: Plasmodium falciparum, DD2, Erythrocyte, 72 h; read-out: AC50.

Take `CCCCCCSc1ccc([C@H]2N[C@@](Cc3ccccc3)(C(=O)OC)[C@H]3C(=O)N(CC)C(=O)[C@@H]23)cc1` [MLS001362744-01]: the half-maximal activity concentration (AC50) was determined as 3.35 µM.

As to `COc1cc(-c2nc(-c3c(C)noc3C)cc3c2cc(C)n3CCN(C)C)ccn1` [NCGC00417201-01], the AC50 came out at 17.2 µM.

As to `COc1ccccc1CN1CCC(CNC(=O)c2cnn(-c3ccc(Cl)cc3)c2C2CCN(C(=O)OC(C)(C)C)CC2)CC1` [NCGC00126796-01], the AC50 is 2.66 µM.

As for `Cc1ccc(Nc2cc(C)nn2-c2nc(C)cc(C)n2)cc1` [MLS000048464-01], the AC50 was determined as 6.68 µM.

Take `CN(C)CCCNc1ccc(-c2cc(Nc3cccc(Cl)c3)ncn2)cn1` [MLS000911553-01]: the AC50 turned out to be 9.44 µM.

On to `Clc1ccc(CN2CCOC[C@H](Oc3ccccc3)C2)cc1` [NCGC00393521-01], for which the half-maximal activity concentration (AC50) stood at 17.2 µM.

Take `COCC1CN(C)CC12CCN([S+](=O)([O-])c1ccc(F)c(Cl)c1)CC2` (stereo not shown) [NCGC00461939-01]: the concentration at half-maximal activity (AC50) came out at 13.3 µM.

On to `c1ccc(-c2nc(-c3ccncc3)no2)c(OC2CCN(C3CCCC3)C2)c1` (stereo not shown) [NCGC00458106-01], for which the AC50 came out at 15 µM.

As to `COc1ccccc1CN1CCC(CNC(=O)c2cnn(-c3cccc(Cl)c3)c2C2CCN(C(=O)OC(C)(C)C)CC2)CC1` [NCGC00126858-01], the AC50 came to 7.5 µM.

For `COc1ccc(CCN(C)C(=O)CC(c2cccc(F)c2)c2cn(C)c3ccccc23)cc1OC` (stereo not shown) [NCGC00473446-01], the AC50 came out at 8.41 µM.

For `COc1cc(O)c(C(CCN2CCOCC2)c2ccc3c(c2)OCO3)c(OC)c1` (stereo not shown) [MLS000879477-01], the concentration at half-maximal activity (AC50) worked out at 4.22 µM.

For `CCCCCCCNC(=O)C1(CC2CC(c3cccc(Br)c3)=NO2)CCN(C(=O)c2cc(OCC)c(OCC)c(OCC)c2)CC1` (stereo not shown) [MLS001144006-01], the concentration at half-maximal activity (AC50) came to 10.6 µM.

`Cc1nn2c(c1-c1ccccc1[S+](C)(=O)[O-])N(CCC(C)C)CCC2` [NCGC00420381-01]: the AC50 was determined as 9.68 µM.

As for `CCCCC(O)(c1ccc(F)cc1)C(CN1CCOCC1)c1ccc(Cl)cc1` (stereo not shown) [MLS001200342-01], the AC50 was found to be 5.96 µM.

`O=C(Nc1ccc(C(=O)OC[C@@H]2CCCN3CCCC[C@H]23)cc1)c1cccc(Br)c1` [MLS000700112-01]: the AC50 was found to be 6.68 µM.

With `Cc1cccc(C)c1-n1ncc(C(=O)NCCCN2CCC(C)CC2)c1C1CCN(C(=O)OC(C)(C)C)CC1` [NCGC00127064-01], the concentration at half-maximal activity (AC50) was 15 µM.

`OCc1cccc(-c2ccc3ncc(Nc4ccc(OCCN5CCCC5)cc4)n3n2)c1` [NCGC00412543-01]: the concentration at half-maximal activity (AC50) is 3.44 µM.

With `Cn1cnc2ccc(-c3cccc(O)c3)nc2c1=O` [NCGC00414672-01], the AC50 came to 6.11 µM.

On to `CC(=O)c1sc2c(c1C)c(=O)n(-c1ccc(Cl)cc1)c(=O)n2Cc1cc(=O)n2cc(Cl)ccc2n1` [NCGC00104860-01], for which the AC50 was 7.5 µM.

For the compound `CN(C)CCN1C(=O)c2oc3ccc(Cl)cc3c(=O)c2C1c1cccc(Br)c1` (stereo not shown) [MLS000862131-01], the concentration at half-maximal activity (AC50) stood at 0.531 µM.

Turning to `CN(C)c1ccc(CN2CCC3(CC2)COc2ccccc2C(=O)N3)cc1` [NCGC00477464-01], the AC50 came to 2.66 µM.

`CCOC(=O)c1[nH]c(C)c(CCC(=O)N2CCN(c3cc(C)ccc3C)CC2)c1C` [NCGC00134586-01]: the AC50 came out at 1.33 µM.

Turning to `CC(=O)Nc1cccc(C(=O)N2CCC3(CC2)NC(c2ccc(C)cc2)=NO3)c1` [NCGC00446797-01], the AC50 came to 0.841 µM.

As to `Cc1ccc(C)c(CN2C(=O)c3ccccc3[S+](=O)([O-])c3ccc(C(=O)NCCc4ccc(Cl)cc4)cc32)c1` [NCGC00109793-01], the half-maximal activity concentration (AC50) came out at 7.5 µM.

Turning to `CCOCCCNc1nc2cc(OC)c(OC)cc2c2nc(-c3ccccc3)nn12` [NCGC00112857-01], the half-maximal activity concentration (AC50) was 0.211 µM.

Turning to `COc1ccc(N2CCN(C(c3cc4ccc(C)cc4nc3O)c3nnnn3C3CCCC3)CC2)cc1` (stereo not shown) [MLS000077379-01], the AC50 was 6.68 µM.

On to `CC12CC3CC(C)(C1)CC(Nc1nc(N4CCOCC4)nc4ccccc14)(C3)C2` [MLS000332322-01], for which the half-maximal activity concentration (AC50) worked out at 9.44 µM.

With `Cc1oc2ccc(O)c(CN3CCN(Cc4ccccc4)CC3)c2c1C(=O)Nc1cccc(Cl)c1C` [NCGC00115656-01], the AC50 came out at 0.596 µM.

Regarding `CCOc1ccccc1NC(C)C(=O)Nc1cc(C(F)(F)F)ccc1N1CCOCC1` (stereo not shown) [MLS000336343-01], the half-maximal activity concentration (AC50) worked out at 2.66 µM.

With `COc1ccc(C)cc1-n1c(-c2ccc(Cl)cc2)cc2c1CC(C)(C)CC2=O` [NCGC00110344-01], the half-maximal activity concentration (AC50) came to 2.99 µM.

With `CC1CCN(c2nc3c([S+](=O)([O-])c4ccccc4)nnn3c3ccc(Cl)cc23)CC1` [NCGC00112222-01], the AC50 was found to be 2.66 µM.

Consider `Cc1ccc2nc(Cl)c3cc(C(=O)NCCCN4CCC(C)CC4)sc3c2c1` [NCGC00110841-01], for which the concentration at half-maximal activity (AC50) was determined as 6.68 µM.

`C=CCOC(=O)C1=C[C@@H](c2ccc(C(F)(F)F)cc2)[C@H](CCCO)[C@@H](OCC)O1` [MLS000766375-01]: the half-maximal activity concentration (AC50) turned out to be 7.5 µM.

On to `CCCCCNc1nc2c(-c3ccccc3)nnn2c2ccccc12` [NCGC00111529-01], for which the AC50 was 11.9 µM.

Consider `COc1cccc(-c2nc(-c3c(C)noc3C)cc3c2cc(C)n3CCN(C)C)c1` [NCGC00417217-01], for which the AC50 worked out at 17.2 µM.

On to `CN1CCN(C(=O)c2ccc3c(c2)N(Cc2c(F)cccc2Cl)C(=O)c2ccccc2S3)CC1` [NCGC00108178-01], for which the AC50 was 0.0596 µM.

As to `O=C(CN1CCN(C(=O)c2ccco2)CC1)Nc1cc(C(F)(F)F)ccc1Cl` [MLS000047443-01], the concentration at half-maximal activity (AC50) was found to be 7.5 µM.

For `CCOc1ccc(CCNC(=O)Nc2ccccc2)cc1OCC` [MLS001197603-01], the AC50 was 5.31 µM.

As for `Cc1ccc(CNC(=O)c2ccc(N3CCC4(CC3)CC(c3cccc(Br)c3)=NO4)c(NC(=O)c3ccco3)c2)cc1` [MLS001074407-01], the half-maximal activity concentration (AC50) turned out to be 8.41 µM.

With `Cc1cccc(Nc2cc(C)c3c(O)cccc3n2)c1C` [MLS000586980-01], the half-maximal activity concentration (AC50) came to 4.73 µM.

For `Cc1cccc(OCCSc2nc3ccc(NC(=O)c4cccs4)cc3s2)c1` [NCGC00118842-01], the AC50 was 9.44 µM.

Regarding `O=C(c1cccs1)N1CCC(O)(c2ccccc2)[C@H](N2CCCC2)C1` (stereo partly shown) [NCGC00442580-01], the AC50 was determined as 9.44 µM.

On to `CN1CCN(C(=O)C(C)(C)Oc2nn(Cc3cccc(Cl)c3)c3ccccc23)CC1` [NCGC00419545-01], for which the AC50 was found to be 7.69 µM.

As to `CC[C@H]1C[N@@]2CC[C@H]1C[C@@H]2CNCc1ccc(SC)cc1` [NCGC00392466-01], the half-maximal activity concentration (AC50) came out at 4.33 µM.

Turning to `O[C@]1(c2ccccc2)CCN(Cc2ccncc2)C[C@H]1N1CCCC1` [NCGC00442600-01], the AC50 worked out at 9.44 µM.

For the compound `N=c1c2c(n(Cc3ccc(F)cc3)c3c1CCC3)CCC2` [MLS000107591-01], the AC50 came to 3.35 µM.

For the compound `COc1cc(Br)c(C2CC(=O)Nc3cc4c(cc32)OCCO4)cc1OC` (stereo not shown) [NCGC00107079-01], the concentration at half-maximal activity (AC50) is 2.37 µM.

On to `OCc1ccc(CN2CCCC(CCc3c(F)cccc3F)C2)o1` (stereo not shown) [NCGC00426759-01], for which the AC50 was found to be 4.22 µM.

On to `Cc1cc(Nc2cccc(C(F)(F)F)c2)nc2ccc(NC(=O)c3cncc(Br)c3)cc12` [NCGC00124348-01], for which the AC50 was 2.37 µM.

For the compound `Cc1ccc(NC(=O)N2CCC(N3C(=O)C4(CCCCC4)C3c3ccncc3)CC2)cc1C` (stereo not shown) [NCGC00461123-01], the AC50 worked out at 7.5 µM.

Consider `CC1(c2ccccc2)N(Cc2cccnc2)C(=O)OC12CCN(Cc1ccccc1)CC2` (stereo not shown) [NCGC00415633-01], for which the concentration at half-maximal activity (AC50) came to 17.2 µM.

On to `O=C(CC[S+](=O)([O-])c1cc(Br)cc2c1N(C(=O)C1CC1)CC2)N1CCN(c2cccc(Cl)c2)CC1` [NCGC00107190-01], for which the half-maximal activity concentration (AC50) was 13.3 µM.

For `COc1ccc(CNC(=O)C2CCN(c3nc(-c4ccccc4)nc4c3CCC4)CC2)cc1` [MLS001120192-01], the AC50 is 7.5 µM.

Regarding `COc1ccc(OC)c([S+](=O)([O-])NC[C@H]2C[C@@H]3CCN2C[C@@H]3c2cc(-c3ccc(F)cc3)nn2C)c1` [NCGC00420960-01], the AC50 was found to be 6.68 µM.

As for `Oc1ccc(Cl)cc1CNCC1CCCCC1` [MLS002207458-01], the AC50 is 4.22 µM.

Turning to `CC(C)c1ccccc1OCC(O)CN(CC(O)COc1cccc2ccccc12)C(C)C` (stereo not shown) [MLS001179995-01], the AC50 amounted to 2.37 µM.

With `Cc1ccc(C)c(C(=O)N2CCC3(CC2)NC(c2ccc(Cl)cc2)=NO3)c1` [NCGC00447013-01], the AC50 was found to be 9.44 µM.

Take `COc1cccc(Nc2ccc3c(n2)C(C)(C(=O)NCC2CC2)CN(C)C3)c1` (stereo not shown) [NCGC00414531-01]: the AC50 turned out to be 12.2 µM.

Take `O=C(Cn1c(=O)n(Cc2ccc(C(=O)NCc3ccc4c(c3)OCO4)cc2)c(=O)c2ccccc21)Nc1cccc(Cl)c1` [NCGC00106483-01]: the AC50 was 5.96 µM.

With `Cc1cc(C)c(CN2C(=O)c3ccccc3[S+](=O)([O-])c3ccc(C(=O)OCC4CCCO4)cc32)c(C)c1` (stereo not shown) [NCGC00127808-01], the AC50 was 6.68 µM.

Consider `COc1ccc(N(CC(=O)NCc2ccccc2)C(=O)CCC(=O)Nc2cc(C)ccn2)c(OC)c1` [MLS000121471-01], for which the AC50 turned out to be 10.6 µM.

Turning to `CC(C)CNC(=O)C(C)(C)Oc1nn(CC2CC2)c2ccc(CN3CCCC3)cc12` [NCGC00419534-01], the AC50 is 19.3 µM.

`CCCCN(CCCC)CC(O)Cn1cc(/C=C/C(=O)c2ccccc2)c2ccccc21` (stereo not shown) [NCGC00114887-01]: the half-maximal activity concentration (AC50) worked out at 1.68 µM.

`Cc1c(CN2CC(Oc3ccccc3C(=O)NCc3ccccc3)C2)cnn1C` [NCGC00458092-01]: the AC50 was 4.22 µM.

Consider `O=C1N=C(NC2CCCCC2)C2(CCN(Cc3ccc(F)cc3)C2)N1c1cc(F)cc(F)c1` (stereo not shown) [NCGC00374193-01], for which the AC50 is 4.22 µM.

With `CN1Cc2ccc(Nc3ccccc3)nc2C(C)(C(=O)NCc2ccc3c(c2)OCO3)C1` (stereo not shown) [NCGC00414588-01], the half-maximal activity concentration (AC50) was 13.7 µM.

Regarding `COc1cc2c(cc1OC1CCCC1)NC(=O)C21CCN(C(=O)c2cccc(C#N)c2)CC1` [NCGC00416876-01], the AC50 worked out at 8.41 µM.

As for `CCN(C(=O)Cn1c(=O)n(Cc2ccc3c(c2)OCO3)c(=O)c2ccc(C(=O)NC3CCCCC3)cc21)c1cccc(C)c1` [NCGC00108796-01], the AC50 is 6.68 µM.

With `Cc1cc(NC(=O)CSc2ccc3nnc(-c4cccc(F)c4)n3n2)no1` [MLS000093339-01], the AC50 turned out to be 5.96 µM.

In the case of `COc1cc(C(=O)OCC(=O)N2CCCCC2C)cc(NC(=O)c2cccs2)c1OC` (stereo not shown) [MLS001003405-01], the AC50 came out at 0.473 µM.
